Data published in patent US20240180803A1, “HYALURONIC ACID-PRODUCTION PROMOTER” (NISSIN FOODS HOLDINGS CO., LTD., priority 2021, published 2024).

System: normal human dermal fibroblasts (NHDF)
Test: Production capacity evaluation test of hyaluronic acid in cultured cells
Assay type: cell-based
Settings: for production capacity of hyaluronic acid with the NC taken as 100%: NHDF, 24 hours, culture supernatant; for Amount of hyaluronic acid produced obtained by subtracting NC / Measured value (amount of hyaluronic acid in the culture supernatant): NHDF culture supernatant; for Measured value (amount of hyaluronic acid in the culture supernatant): NC 942
Procedure: Reagents were first prepared. […] Next, preparation of cultured cells was performed. In Example, the preparation was performed with normal human dermal fibroblasts (NHDF). First, using Dulbecco's Modified Eagle Medium (DMEM, manufactured by Gibco) to which 10% heat-inactivated FBS (manufactured by Biowest) and penicillin-streptomycin (manufactured by Invitrogen) were added, NHDF was cultured under the conditions of 37° C., 5% CO2. NHDF cells were then seeded to a 24-well plate at 1.0×10^5 cells/well. Thereafter, the NHDF cells were cultured for 72 hours under the conditions mentioned above. After the cell culture, the culture supernatant was replaced with DMEM containing no FBS. […] Note that in cultured cells, the concentration is not related to an absorption rate, which is applied to oral intake. […] After the addition of the reagent or reagents, the cells were cultured for 24 hours under the conditions of 37° C., 5% CO2. The medium was recovered after culturing, and the concentration of the hyaluronic acid in the culture supernatant was measured using Hyaluronan DuoSet Kit (manufactured by R&D Systems). Note that the cell culture without reagent was set as a negative control (NC) in Example. […] Here, the cell culture without reagent was set as a negative control (NC), and the amount (ng/mL) of hyaluronic acid produced was determined by subtracting the amount of hyaluronic acid produced of the NC from the amount of hyaluronic acid produced of each compound with reagent.

| SMILES | production capacity of hyaluronic acid with the NC taken as 100% (0.001 μM final concentration) | production capacity of hyaluronic acid with the NC taken as 100% (0.01 μM final concentration) | production capacity of hyaluronic acid with the NC taken as 100% (0.05 μM final concentration) | production capacity of hyaluronic acid with the NC taken as 100% (0.1 μM final concentration) | production capacity of hyaluronic acid with the NC taken as 100% (1 μM final concentration) | promotion capacity of hyaluronic acid production (in words) (concentrations of 0.01 mM or less and of 1 mM) | Amount of hyaluronic acid produced obtained by subtracting NC (final concentration 1 mM) | Measured value (amount of hyaluronic acid in the culture supernatant) (final concentration 1 mM) | promotion of hyaluronic acid production (in words) (any concentration tested (0.001 to 1 mM)) | promotion capacity of hyaluronic acid production (in words) (concentrations from 0.01 to 0.05 mM) | amount of hyaluronic acid produced compared with substances having similar chemical structures (in words) (final concentration 1 mM) |
| --- | --- | --- | --- | --- | --- | --- | --- | --- | --- | --- | --- |
| CCCCCCCCCCCCCCCCCCCC(=O)O [Arachidic acid, arachidic acid] | 111% | 122% | 102% | 107% | 127% | high promotion capacity of production |  |  |  |  |  |
| O=c1c(-c2ccc(O)cc2)coc2cc(O)ccc12 [Daidzein, daidzein, reference compound] |  |  |  |  |  |  | 0 ng/mL | 891 ng/mL |  |  |  |
| O=C(/C=C/c1ccc(O)cc1)c1ccc(O)cc1O [Isoliquiritigenin, isoliquiritigenin] |  | 142% | 138% |  | 127% |  | 562.7006 ng/mL | 1504 ng/mL | promotion of hyaluronic acid production was confirmed | remarkably high promotion capacity of production | the highest |
| O=C1C[C@@H](c2ccc(O)cc2)Oc2cc(O)ccc21 [Liquiritigenin, liquiritigenin, reference compound] |  |  |  |  |  |  | 164.725 ng/mL | 1106 ng/mL |  |  |  |
| O=C(O)/C=C/c1ccc(O)cc1 [trans-p-coumaric Acid, Trans-p-coumaric acid, reference compound] |  |  |  |  |  |  | 275.4202 ng/mL | 1217 ng/mL |  |  |  |
